Data published in patent US20230203060A1 (GENFLEET THERAPEUTICS (SHANGHAI) INC., priority 2020, published 2023).
Counter-ions that a name gives are not always drawn.

Key:
[1] = tested on: KRAS G12C mutant NCI-H358 cells; assay: Cell proliferation inhibition experiment, 3D spheroid, CellTiter-Glo, NCI-H358; type: cell-based, human; settings: Homo sapiens, NCI-H358, 120 h, NCI-H358 (KRAS G12C mutant) 3D spheroid, 5 days with compound, CellTiter-Glo; read-out: H358 IC50
Summary of the method: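 CellTiter-Glo luminescence after 5 days' compound treatment (3.16-fold series, 0.1% DMSO) of overnight-formed spheroids in 2% FBS medium: H358 seeded at 800 cells/well in RPMI-1640, A549 at 400 cells/well in F-12K. IC50 derived by four-parameter fit of inhibition normalized to DMSO control and blank.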

[2] = tested on: KRAS G12C mutant MIA PaCa-2 cells; assay: Cell proliferation inhibition experiment, 3D spheroid, CellTiter-Glo, MIA PaCa-2; type: cell-based, human; settings: Homo sapiens, MIA PaCa-2, 120 h, 3D cell model in 384-well spheroid plate, 5 days, CellTiter-Glo; read-out: MIA-PaCa2 IC50
Summary of the method: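 Luminescent ATP read-out (CellTiter-Glo) after 5-day compound treatment of spheroids formed overnight from 200 MIA PaCa-2 cells/well; compounds in 3.16-fold series, 0.1% DMSO final. IC50 derived by four-parameter fit of percent inhibition, normalized to DMSO control and medium blank.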

Row | IC50 [1] [nM] | IC50 [2] [nM] | Structure (SMILES)
1 | 26.7 | 74 | C=CC(=O)N1CCN2C(=O)c3c(N4C[C@H](O)CC4(C)C)nc(-c4c(O)ccc(Cl)c4F)c(F)c3OC[C@H]2C1 (single isomer, unassigned) [Z340-2]
2 | 8.3 | 17.6 | C=CC(=O)N1CCN2C(=O)c3c(N4C[C@@H](OC)C[C@@H]4C)nc(-c4c(O)cccc4F)c(F)c3OC[C@H]2C1 [Z359-1, (6aR)-8-actyloyl-4-fluoro-3-(2-fluoro-6-hydroxyphenyl)-1-((2S,4S)-4-methoxy-2-methylpyrrolidin-1-yl)-6,6a,7,8,9,10-hexahydro-12H-pyrazino[2,1-c]pyrido[3,4-f][1,4]oxazepin-12-one]
3 | 2 | 7 | C=CC(=O)N1CCN2C(=O)c3c(N4CCCC4(C)C)nc(-c4c(O)cccc4F)c(Cl)c3OC[C@H]2C1 [Z22, (6aR)-8-acryloyl-4-chloro-1-(2,2-dimethylpyrrolidin-1-yl)-3-(2-fluoro-6-hydroxyphenyl)-6,6a,7,8,9,10-hexahydro-12H-pyrazino[2,1-c]pyrido[3,4-f][1,4]oxazepin-12-one]
4 | 9 | 11 | C=CC(=O)N1CCN2C(=O)c3c(N4CCC(N(C)C)C4(C)C)nc(-c4c(O)cccc4F)c(Cl)c3OC[C@H]2C1 (stereo partly drawn) [Z334, (6aR)-8-acryloyl-4-chloro-1-(3-(dimethylamino)-2,2-dimethylpyrrolidin-1-yl)-3-(2-fluoro-6-hydroxyphenyl)-6,6a,7,8,9,10-hexahydro-12H-pyrazino[2,1-c]pyrido[3,4-f][1,4]oxazepin-12-one]
5 | 4 | 8 | C=CC(=O)N1CCN2C(=O)c3c(N(C)c4c(C(C)C)ncnc4C(C)C)nc(-c4c(O)cccc4F)c(Cl)c3OC[C@H]2C1 [Z20, (6aR)-8-acryloyl-4-chloro-1-((4,6-diisopropylpyrimidin-5-yl)(methyl)amino)-3-(2-fluoro-6-hydroxyphenyl)-6,6a,7,8,9,10-hexahydro-12H-pyrazino[2,1-c]pyrido[3,4-f][1,4]oxazepin-12-one]
6 | 18 | 37.4 | C=CC(=O)N1CCN2C(=O)c3c(N4CCN(C)C5(CC5)C4)nc(-c4c(O)cccc4F)c(Cl)c3OC[C@H]2C1 [Z83, (6aR)-8-acryloyl-4-chloro-3-(2-fluoro-6-hydroxyphenyl)-1-(4-methyl-4,7-diazaspiro[2 .5]octan-7-yl)-6,6a,7,8,9,10-hexahydro-12H-pyrazino[2,1-c]pyrido[3,4-f][1,4]oxazepin-12 (6aH)-one]
7 | 0.7 | 1.5 | C=CC(=O)N1CCN2C(=O)c3c(N4CC[C@@H](OC)C4(C)C)nc(-c4c(O)cccc4F)c(Cl)c3OC[C@H]2C1 (single isomer, unassigned) [Z241a-2]
8 | 10 | 15 | C=CC(=O)N1CCN2C(=O)c3c(Nc4c(C(C)C)ncnc4C(C)C)nc(-c4c(O)cccc4F)c(Cl)c3OC[C@H]2C1 [Z15, (6aR)-8-acryloyl-4-chloro-1-((4,6-diisopropylpyrimidin-5-yl)amino)-3-(2-fluoro-6-hydroxyphenyl)-6,6a,7,8,9,10-hexahydro-12H-pyrazino[2,1-c]pyrido[3,4-f][1,4]oxazepin-12-one]
9 | 26 | 30 | C=CC(=O)N1CCN2C(=O)c3c(N4CCO[C@](C)(CO)C4)nc(-c4c(O)cccc4F)c(Cl)c3OC[C@H]2C1 (single isomer, unassigned) [Z333-1]
10 | 1.3 | 1.7 | C=CC(=O)N1CCN2C(=O)c3c(N4CCN(C(=O)C5CC5)C[C@@H]4C)nc(-c4c(O)cccc4F)c(Cl)c3OC[C@H]2C1 [Z320-1, (6aR)-8-acryloyl-4-chloro-1-((S)-4-(cyclopropanecarbonyl)-2-methylpiperazin-1-yl)-3-(2-fluoro-6-hydroxyphenyl)-6,6a,7,8,9,10-hexahydro-12H-pyrazino[2,1-c]pyrido[3,4-f][1,4]oxazepin-12-one]
11 | 0.6 | 1.5 | C=CC(=O)N1CCN2C(=O)c3c(N4C[C@@](C)(O)CC4(C)C)nc(-c4c(O)cccc4F)c(Cl)c3OC[C@H]2C1 (single isomer, unassigned) [Z243-1]
12 | 5 | 9.6 | C=CC(=O)N1CCN2C(=O)c3c(N4CCN(C(C)=O)C(C)(C)C4)nc(-c4c(O)cccc4F)c(Cl)c3OC[C@H]2C1 [Z315, (6aR)-1-(4-acetyl-3,3-dimethylpiperazin-1-yl)-8-acryloyl-4-chloro-3-(2-fluoro-6-hydroxyphenyl)-6,6a,7,8,9,10-hexahydro-12H-pyrazino[2,1-c]pyrido[3,4-f][1,4]oxazepin-12-one]
13 | 18.4 | 30.7 | C=CC(=O)N1CCN2C(=O)c3c(N4Cc5cn(C)nc5[C@H]4C)nc(-c4c(O)cccc4F)c(Cl)c3OC[C@H]2C1 (single isomer, unassigned) [Z291-1S, trifluoroacetate]
14 | 1.9 | 8 | C=CC(=O)N1CCN2C(=O)c3c(N4C[C@@H](OC)CC4(C)C)nc(-c4c(O)cccc4F)c(Cl)c3OC[C@H]2C1 (single isomer, unassigned) [Z244-1]
15 | 4.4 | 6.1 | C=CC(=O)N1CCN2C(=O)c3c(N4C[C@H](N(C)C)CC4(C)C)nc(-c4c(O)cccc4F)c(Cl)c3OC[C@H]2C1 (single isomer, unassigned) [Z324-2]
16 | 1.9 | 3.3 | C=CC(=O)N1CCN2C(=O)c3c(N4C[C@H](CO)CC4(C)C)nc(-c4c(O)cccc4F)c(Cl)c3OC[C@H]2C1 (single isomer, unassigned) [Z240-2]
17 | 6.1 | 15.5 | C=CC(=O)N1CCN2C(=O)c3c(N4C[C@H](O)CC4(C)C)nc(-c4ccccc4F)c(Cl)c3OC[C@H]2C1 (single isomer, unassigned) [Z325-2]
18 | 7.8 | 13 | C=CC(=O)N1CCN2C(=O)c3c(N4CC[C@@H]5C[C@@H]54)nc(-c4c(O)cccc4F)c(Cl)c3OC[C@H]2C1 (single isomer, unassigned) [Z39-2]
19 | 0.4 | 1.1 | C=CC(=O)N1CCN2C(=O)c3c(N4CC(N(C)CCOC)CC4(C)C)nc(-c4c(O)cccc4F)c(Cl)c3OCC2C1 (single isomer, unassigned) [Z296-1]
20 | 6 | 9.9 | C=CC(=O)N1CCN2C(=O)c3c(N4CCOCC4)nc(-c4nc(N)cc(C)c4C(F)(F)F)c(Cl)c3OC[C@H]2C1 [Z314]
21 | 2.9 | 7 | C=CC(=O)N1CCN2C(=O)c3c(N4CC(OC)CC4(C)C)nc(-c4c(O)cccc4F)c(Cl)c3OC[C@H]2C1 (stereo partly drawn) [Z244, (6aR)-8-acryloyl-4-chloro-3-(2-fluoro-6-hydroxyphenyl)-1-(4-methoxy-2,2-dimethylpyrrolidin-1-yl)-12-oxo-6,6a,7,8,9,10-hexahydro-12H-pyrazino[2,1-c]pyrido[3,4-f][1,4]oxazepin-12-one]
22 | 1.3 | 2.2 | C=CC(=O)N1CCN2C(=O)c3c(N4CCN(C(=O)CC)C[C@@H]4C)nc(-c4c(O)cccc4F)c(Cl)c3OC[C@H]2C1 [Z316-1, (6aR)-8-acryloyl-4-chloro-3-(2-fluoro-6-hydroxyphenyl)-1-((S)-2-methyl-4-propionylpiperazin-1-yl)-6,6a,7,8,9,10-hexahydro-12H-pyrazino[2,1-c]pyrido[3,4-f][1,4]oxazepin-12-one]
23 | 29 | 65 | C=CC(=O)N1CCN2C(=O)c3c(N4CCC(C)(C)C4)nc(-c4c(O)cccc4F)c(Cl)c3OC[C@H]2C1 [Z21, (6aR)-8-acryloyl-4-chloro-1-(3,3-dimethylpyrrolidin-1-yl)-3-(2-fluoro-6-hydroxyphenyl)-6,6a,7,8,9,10-hexahydro-12H-pyrazino[2,1-c]pyrido[3,4-f][1,4]oxazepin-12-one]
24 | 8 | 24 | C=CC(=O)N1CCN2C(=O)c3c(N4C[C@@H](O)CC4(C)C)nc(-c4c(F)ccc(Cl)c4O)c(F)c3OC[C@H]2C1 (single isomer, unassigned) [Z341-1]
25 | 1 | 3 | C=CC(=O)N1CCN2C(=O)c3c(N4C[C@@H](N5CCOCC5)CC4(C)C)nc(-c4c(O)cccc4F)c(Cl)c3OC[C@H]2C1 (single isomer, unassigned) [Z297-2]
26 | 0.7 | 0.9 | C=CC(=O)N1CCN2C(=O)c3c(N4CC(N(C)C5COC5)CC4(C)C)nc(-c4c(O)cccc4F)c(Cl)c3OC[C@H]2C1 (stereo partly drawn) [Z326, (6aR)-8-acryloyl-4-chloro-1-(2,2-dimethyl-4-(methyl(oxetan-3-yl)amino)pyrrolidin-1-yl)-3-(2-fluoro-6-hydroxyphenyl)-6,6a,7,8,9,10-hexahydro-12H-pyrazino[2,1-c]pyrido[3,4-f][1,4]oxazepin-12-one]
27 | 1.3 | 3 | C=CC(=O)N1CCN2C(=O)c3c(N4CC(N5CCOCC5)CC4(C)C)nc(-c4c(O)cccc4F)c(Cl)c3OC[C@H]2C1 (stereo partly drawn) [Z344, (6aR)-8-acryloyl-4-chloro-1-((2,2-dimethyl-4-morpholinopyrrolidin-1-yl))-3-(2-fluoro-6-hydroxyphenyl)-6,6a,7,8,9,10-hexahydro-12H-pyrazino[2,1-c]pyrido[3,4-f][1,4]oxazepin-12-one]
28 | 0.5 | 1 | C=CC(=O)N1CCN2C(=O)c3c(N4C[C@H](OC)CC4(C)C)nc(-c4c(O)cccc4F)c(Cl)c3OC[C@H]2C1 (single isomer, unassigned) [Z244-2]
